Results as given in patent publication US10858628B2, “Methods and compositions for inducing hematopoietic cell differentiation” (Fate Therapeutics, Inc., priority 2015, dated 2020).

Tests used:
Assay type in all cases: cell-based, human
hiPSCs [1] = test: hiPSC monolayer hematopoietic differentiation (iCD34 platform), CD34+ HE population at D10 by flow cytometry
Method: The iCD34 platform is an optimized system for hematopoietic lineage cells differentiation. To initiate differentiation towards the hematopoietic lineage, hiPSCs were seeded as a monolayer on Day (D) 0 in the maintenance medium and allowed to adhere and expand for about 24 hours. At this point, the maintenance medium was removed and replaced with base medium without maintenance factors at D1. Hematopoietic differentiation was initiated at around D2 by switching the culture medium to iCD34−A (see FIG. 1). […] The monolayers were maintained until around D5-D6 at which point they were dissociated into single cells and seeded as a low density monolayer in iCD34−C medium until differentiation around D10. Low oxygen tension (2-10% O2) was maintained from the onset of hematopoietic differentiation around D2 up until around D10 of differentiation.
During the culture process, the directed differentiation towards the hematopoietic lineage was monitored by the dissociation of the monolayers into single cells and analysis for the surface marker expression of CD34, and optionally, CD43, CD45, CXCR4, CD73 and/or CD93 (FIG. 4A). At around D8 of differentiation, the appearance of a cell population representing HE was observed by the cell surface expression signature CD34+. CD43−CXCR4−CD73− was also observed in the CD34+ cells. The CD34+ population was maintained until around D10 (FIG. 4A). At D10, which time point can be shortened to about D9 or extended until about D12, the cells were dissociated into single cells and the CD34+ HE population was sorted by FACS using a BD FACS Aria for further analysis and functional assessment.
To optimize the efficient generation of HE from hiPSCs after around 10 days of differentiation several parameters were examined. The optimal plating density of the monolayers at D0 of differentiation was assessed by plating increasing numbers of hiPSCs from 7.5×10^4/well to 1.5×10^5/well on Matrigel™-coated 6 well culture dishes and then analyzing the generation of the CD34+ HE population at about D10. […] Despite this decrease, the highest conversion rate of hiPSCs to HE after 10 days of monolayer differentiation was at the highest plating density tested at 1.5×10^5/well (FIG. 4C).
The effect of the concentration of BMP4 modulation during the initial stages of hematopoietic differentiation on the generation of HE was assessed by treating the cultures with increasing concentrations of BMP4 ranging from 0 ng/ml to 30 ng/ml from about D2 to about D6 of differentiation. The generation of HE at D10 was assessed by the detection of the CD34+ HE population.
The Wnt pathway activator CHIR99021 is responsible for the induction of the definitive hematopoietic program from hiPSCs. The effect of the modulation of CHIR during the induction phase of the hematopoietic differentiation protocol was assessed by treating the cultures with increasing concentrations of CHIR from about D3.75 to about D6.

hiPSCs [2] = test: WNT signaling modulation from day 6 of differentiation, CD34+CD43-CD93- HE analyzed at Day 10
Method: To optimize the efficient generation of definitive HE from hiPSCs after 10 days of directed differentiation, the effect of modulation of the WNT signaling pathway was examined. At day 6 of differentiation, cell cultures were differentiated in the presence of the GSK3 inhibitor CHIR99021, a Wnt agonist, or IWP2, a WNT inhibitor (FIG. 29A). The generation of CD34+CD43−CD93− HE was analyzed at Day 10.

Day 10 CD34+CD43- cells [3] = test: MPP differentiation of WNT modulated HE
Method: Approximately 30,000 CD34+ HE cells were plated as a monolayer in iMPP-A media and further cultured for 6-8 days. FIG. 6A illustrates the phenotypic alterations in the monolayer cultures with the emergence of round hematopoietic cells and flow cytometric staining identifies the presence of CD45+ over the 6-8 day culture period.
(§1) To determine the potency of the WNT modulated HE, the pan-hematopoietic and lymphoid potential of the untreated, IWP2- and CHIR99021-treated HE was each assessed. Day 10 CD34+CD43− cells were isolated by FACS and plated in MPP differentiation and iNK differentiation cultures as provided herein.

Day 10 CD34+CD43- cells [4] = test: iNK differentiation of WNT modulated HE
Method: Specific to NK cells, upon sorting, the HE cells were cultured on low attachment tissue culture plates in iNK-A2 serum-free differentiation media containing SCF, TPO, Flt3L, IL3, IL15, and IL7 (FIG. 3). After 5 days, the cells were transferred to adherent cultures containing DLL4-expressing stromal cells in iNK-B2 differentiation media containing SCF, IL3, IL15, Flt3L and IL7 to complete NK cell differentiation. After approximately 10-15 days of culturing (post HE isolation) the cell culture was assessed for the generation of NK cell progenitors followed by mature NK subsets following an additional 10-15 days of culturing. CD56 and CD161 (NKR-P1A) are the first cell surface markers to be expressed during early NK cell development followed by the expression of CD16, KIR, CD8 and NKG2D (CD314) on later mature NK cell subsets. FIG. 11 depicts the in vitro differentiation capability of the Day 10 HE population to give rise to early NK cell progenitors and mature NK cell subsets by analysis of a CD45+ population generated in the co-cultures.
as §1

[5] = test system: umbilical cord blood CD34+ cells; test: Stromal-free NK differentiation on plate-bound DLL4 protein, cord blood cells; conditions: versus stromal-based and stromal-free control cultures
Method: Specific to NK cells, enriched umbilical cord blood CD34+ cells were plated in iNK-A2 serum-free differentiation media containing SCF, Flt3L, TPO, IL3, IL15 and IL7 in culture plates containing DLL4 protein or control protein. After 5 days the iNK-B2 medium was maintained to complete NK cell differentiation. After approximately 10-15 days of culture, the culture was assessed for the generation of NK cell progenitors and the absence of myeloid cells. CD56, CD7 and CD161 are the first cell surface markers to be expressed during NK cell development. CD11b and CD14 are cell surface markers expressed on myeloid cell subsets. FIG. 18 depicts stromal-free differentiation of umbilical cord blood CD34+ cells towards NK cells. […] Early NK lineage markers identify the presence of ipro-NK cells as defined by CD56, CD7 and CD161 and the absence of myeloid markers CD11b and CD14.

[6] = test system: Day 10 CD34+ iHE sorted cells; test: Stromal-free NK differentiation on plate-bound DLL4 protein, hiPSC-derived cells
From the text: Then the hiPSC-derived CD34+ cells were differentiated towards the NK cell lineage for 20 days and then placed in suspension culture for further maturation. […] After 5 days iNK-B2 media was maintained to complete NK cell differentiation. Markers for identifying the presence of mature NK cells include CD56, CD122, NKp30, CD94, CD16, NKG2D and KIR.

[7] = CHIR from about D3.75 to about D6

Cc1c[nH]c(-c2cnc(NCCNc3ccc(C#N)cn3)nc2-c2ccc(Cl)cc2Cl)n1 [CHIR99021]
effect of increasing concentration on percentage of the HE subpopulation (hiPSCs [1]; [7]): decreases the percentage of the HE subpopulation
effect of increasing concentration on total percentage of CD34+ cells (hiPSCs [1]; [7]): increases the total percentage of CD34+ cells
optimal concentration of CHIR99021 for HE subpopulation (hiPSCs [1]; [7]): approximately 1 uM
number and percentage of phenotypic CD34+CD43-CD93- HE (FIG. 29B legend) (hiPSCs [2]): increased the number and the percentage
HE cellularity (total HE cell number, HE proliferation) (hiPSCs [2]; treated from day 6): improved HE cellularity
percentage of CD34+CD43- cells at Day 10 (hiPSCs [2]; treated from day 6): slight decrease
increase in number and percentage of phenotypic CD34+CD43-CD93- HE (hiPSCs [2]; treated from day 6, Day 10): 2-3 fold
production of CD45+ cells from the modulated HE (FIG. 30A legend) (Day 10 CD34+CD43- cells [3]): increased the production of CD45+ cells
increased presence of CD45+ cells (hematopoietic potency) (Day 10 CD34+CD43- cells [3]; after 7 days of MPP differentiation): 5-6 fold
production of NK progenitor cells from the modulated HE (FIG. 30B legend) (Day 10 CD34+CD43- cells [4]): increased the production of NK progenitor cells
increased presence of CD56+CD7+ NK progenitor cells (lymphoid capacity) (Day 10 CD34+CD43- cells [4]; after 20 days of iNK differentiation): 5-6 fold

Cc1ccc2nc(NC(=O)CSc3nc4c(c(=O)n3-c3ccccc3)SCC4)sc2c1 [IWP2]
HE cell numbers at Day 10 (hiPSCs [2]; treated from day 6): overall decrease in HE cell numbers
percentage of phenotypic HE at Day 10 (hiPSCs [2]; treated from day 6): did not affect the percentage of phenotypic HE

DLL4: plate-bound DLL4 protein, Notch activator
differentiation of CD56+CD7+CD161+ NK cell progenitors [5]: supports a more rapid and efficient differentiation
differentiation of NK cell progenitors versus myeloid cells [6]: supports the differentiation of CD56+CD7+CD161+ NK cell progenitors but not CD11b+ myeloid cells

B1: BMP4: bone morphogenetic protein, BMP pathway activator (protein, UniProt P12644 293-408, looked up)
Bone morphogenetic protein 4: SPKHHSQRARKKNKNCRRHSLYVDFSDVGWNDWIVAPPGYQAFYCHGDCPFPLADHLNSTNHAIVQTLVNSVNSSIPKACCVPTELSAISMLYLDEYDKVVLKNYQEMVVEGCGCR
optimal concentration of BMP4 for HE population at D10 (hiPSCs [1]; BMP4 0 ng/ml to 30 ng/ml from about D2 to about D6): about 3 ng/mL
effect of increasing BMP4 concentration on HE population at D10 (hiPSCs [1]; BMP4 from D2 to D6, below a threshold concentration): increases the HE population at D10
